Experimental data published in patent publication US7863283B2, “Sulphoximine-substituted quinazoline derivatives as immuno-modulators, their preparation and use as medicaments” (Bayer Schering Pharma AG, priority 2008, dated 2011).

How the values were obtained:
IL-12 = experiment: TLR-induced cytokine release in human PBMC: IL-12 (ELISA); type: cell-based; details: human PBMC stimulated using a TLR ligand, incubated 18 hours with test substance, supernatant ELISA
Method: (§1) TLR-Induced Cytokine Release in Human “Peripheral Blood Mononuclear Cells” (PBMC)
(§2) PBMCs isolated from human whole blood are stimulated using a TLR ligand. The cytokine determination is carried out by means of ELISA kits; a proliferation/cell metabolism determination is carried out using Alamar Blue.
(§3) For the cell preparation, about 200 ml of blood are treated with an anticoagulant (e.g. citrate Monovettes). Per Leucosep tube, 15 ml of Histopaque (room temperature, RT) are poured in and pressed downwards through the frit employed by brief initial centrifugation (one minute at 1000×g, RT). 20 ml of blood are added to the tubes prepared in this way and centrifuged at 800×g for 15 minutes (RT). After centrifugation, the following layered arrangement results from the top to the bottom: plasma—PBMC—Histopaque—filter disc—Histopaque—erythrocytes and granulocytes. The supernatant plasma is aspirated. The PBMC are transferred together with the underlying Histopaque to a new 50 ml tube, the contents of two Leucosep tubes always being added to one 50 ml tube. The 50 ml tubes are then filled to 50 ml with PBS. This cell suspension is centrifuged at 300×g (RT) for 10 minutes. The liquid supernatant is tipped off and the cell pellet is resuspended with a little PBS and subsequently filled to 50 ml with PBS. This washing step is repeated twice. The resulting pellet is taken up in a defined volume of medium (with additives). For the testing of the substances, PBMC are incubated for 18 hours with titrated concentrations of the test substances, e.g. in the presence or absence of TLR ligands. On the next day, the supernatants are investigated for the content of IL-12, TNF-alpha or other chemokines by means of specific ELISA. The metabolic activity of the treated cells is determined with the aid of Alamar Blue.

TNF-α = experiment: TLR-induced cytokine release in human PBMC: TNF-alpha (ELISA); type: cell-based; details: human PBMC stimulated using a TLR ligand, incubated 18 hours with test substance, supernatant ELISA
Method: as §1, §2, §3

Row | IC50 (IL-12) [µM] | IC50 (TNF-α) [µM] | Structure (SMILES)
1 | 4.1 | 2.1 | CC(C)Nc1ncnc2cc(OCc3cccc(S(C)(=N)=O)c3)c(Br)cc12 (racemic) [Example 1.2, (RS)-S-[3-({[6-Bromo-4-(isopropylamino)quinazolin-7-yl]oxy}methyl)phenyl]-S-methylsulphoximide]
2 | 15 | 4 | CC(C)Nc1ncnc2cc(OCc3ccc(S(C)(=N)=O)cc3)c(Br)cc12 (racemic) [Example 2.8, (RS)-S-[4-({[6-Bromo-4-(isopropylamino)quinazolin-7-yl]oxy}methyl)phenyl]-S-methylsulphoximide]
3 | 0.4 | 0.2 | CCS(=N)(=O)c1cccc(COc2cc3ncnc(NC(C)C)c3cc2OC)c1 (racemic) [Example 2.10, (RS)-S-Ethyl-S-[3-({[4-(isopropylamino)-6-methoxyquinazolin-7-yl]oxy}-methyl)phenyl]sulphoximide]
4 | 15 | 10 | COc1cc2c(NC(C)C)ncnc2cc1OCCCS(C)(=N)=O (racemic) [Example 3.4, (RS)-S-(4-{[4-(Isopropylamino)-6-methoxyquinazolin-7-yl]oxy}propyl)-S-methyl-sulphoximide]
5 | 4 | 1 | CC(C)Nc1ncnc2cc(OCc3cncc(S(C)(=N)=O)c3)c(Br)cc12 (racemic) [Example 3.7, (RS)-S-[5-({[6-Bromo-4-(isopropylamino)quinazolin-7-yl]oxy}methyl)pyridin-3-yl]-S-methylsulphoximide]
